{"source": "patent US20230372382A1", "about": "“USE OF ADENOSINE DIPHOSPHATE RIBOSE FOR ADJUVANT THERAPY WITH RADIATION AND/OR ANTI-CANCER TREATMENT” (PearlsInMires Co., Ltd., priority 2021, published 2023)", "key": {"Caki-1 cells": {"system": "Caki-1 cells", "assay": "Cancer cell death verification (MTT cell viability)", "type": "cell-based", "protocol": "3×10^3 Brain cancer (U-87MG), lung cancer (H1975), pancreatic cancer (Aspc-1), liver cancer (Hep G2), breast cancer (MDA-MB-231), colon cancer (HCT116), kidney cancer (Caki-1), gastric cancer (SNU-1) and ovarian cancer (OVCAR-3) cells were cultured in a 96-well plate under conditions of 37° C. and 5% CO2 for 24 hours, and then each cancer cell was treated with ADP-ribose at each concentration. After culturing for 24 hours under conditions of 37° C. and 5% CO2 again, 10 μl of 3-(4,5-dimethylthiazol-2-yl)-2,5-diphenyltetrazolium bromide reagent was added to each well and reacted for 1 hour. After the reaction was completed, the reagent was removed, 200 μl of dimethyl sulfoxide was added to each well, and the absorbance was measured to determine the concentration of half-lethality and maximum lethality compared to untreated cells.\nThen, 10 μl of 3-(4,5-dimethylthiazol-2-yl)-2,5-diphenyltetrazolium bromide reagent was added to each well and reacted for 1 hour. After the reaction was completed, the reagent was removed, 200 μl of dimethyl sulfoxide was added to each well, and the absorbance was measured to confirm cell viability."}, "[1]": {"system": "Kidney cancer (Caki-1) cells", "assay": "Xenograft model, intravenous ADP-ribose, tumor volume", "type": "in vivo, BALB/c nude mice", "conditions": "Caki-1 xenograft, 3 times a week, control about 2074.9", "description": "Pancreatic cancer (AsPC-1) or kidney cancer (Caki-1) cells (1×10^7 cells) were inoculated into 5-week-old BALB/c nude mice on the back flank, and the mice were grown up to approximately 150 mm^3 of the tumor volume. Then, three concentrations of ADP-ribose were administered subcutaneously, intravenously, and orally 3 times a week. The tumor size was measured every 6 days using a digital caliper, and the changes in tumor volume were compared for each group.\nKidney cancer (Caki-1) cells (1×10^7) were inoculated into 5-week-old BALB/c nude mice on the back flank, and the mice were divided into 4 groups: the control group (Control) and groups injected intravenously with 2, 10, and 20 mg/kg of ADP-ribose. When the tumors were grown to a volume of approximately 150 mm^3, each concentration of ADP-ribose was […] injected 3 times a week. The tumor size was measured using a digital caliper, and the results of changes in tumor volume were compared by the group."}, "[2]": {"system": "Lung cancer (H1975) cells", "assay": "Xenograft model, combination with anti-cancer drug, tumor volume", "type": "in vivo, BALB/c nude mice", "description": "Brain (U-87MG), lung (H1975), pancreatic (AsPC-1), or liver (Hep G2) cells (1×10^7 cells) were inoculated into 5-week-old BALB/c nude mice on the back flank, respectively. Then, when tumors were grown to a volume of approximately 150 mm^3, the mice were divided into the control group (control), an anti-cancer drug alone treatment group, and a combination treatment group. […] The tumor size was measured every 6 days using a digital caliper, and the results of changes in tumor volume were compared by the group.\nLung cancer (H1975) cells (1×10^7) were inoculated into 5-week-old BALB/c nude mice on the back flank, and the mice were divided into three groups: the control group (Control), single oral administration of 1 mg/kg of osimertinib, and combination administration of osimertinib+10 mg/kg of ADP-ribose. When the tumors were grown to a volume of approximately 150 mm^3, osimertinib was administered orally twice a week, and ADP-ribose at 10 mg/kg was injected subcutaneously 3 times a week. The tumor size was measured using a digital caliper, and the results of changes in tumor volume were compared by the group."}, "MDA-MB-231 cells": {"system": "MDA-MB-231 cells", "assay": "Change over time in intracellular ADP-ribose, radiation versus ADP-ribose treatment (ELISA)", "type": "cell-based", "conditions": "MDA-MB-231, 16 μM ADP-ribose, even after 24 hours; after radiation back to untreated level from 16 hours", "description": "Brain cancer (U-87MG), kidney cancer (Caki-1), pancreatic cancer (AsPC-1), or breast cancer (MDA-MB-231) cells were cultured in a 6-well plate, respectively, and the cells were divided into the untreated group, the radiation-treated group, and the ADP-ribose-treated group. Irradiation was performed using an X-Rad 320 irradiator (Precision X-ray, North Branford, CT, USA), and cancer cells were treated with a total of 1, 2, and 5 Gy at a dose rate of 300 kVp and 150 cGy/min using an X-ray beam filter composed of 12.5 mA and 2.0 mm Al, respectively. Before treatment and at 4, 8, 16, and 24 hours after treatment, the medium was removed, the cells were washed with phosphate-buffered saline, and then RIPA buffer was added and the products were left on ice for 20 minutes. After scraping the cells, the cells were put in a centrifuge tube and centrifuged for 10 minutes at 10,000 g and 4° C. The supernatant was obtained, and 1% SDS was added, and then the reaction product was boiled at 100° C. for 5 minutes and cooled on ice. The supernatant was centrifuged again at 10,000 g and 4° C. for 10 minutes to obtain the final supernatant, and ADP-ribose was quantitatively analyzed using an ELISA analysis kit (Cell Biolabs, Inc., San Diego, CA, USA). […]"}, "[3]": {"system": "Kidney cancer (Caki-1) cells", "assay": "Xenograft model, combination with radiation, tumor volume", "type": "in vivo, BALB/c nude mice", "conditions": "Caki-1 xenograft", "description": "Brain cancer (U-87MG), pancreatic cancer (AsPC-1), breast cancer (MDA-MB-231), or kidney cancer (Caki-1) cells (1×10^7 cells) were inoculated into 5-week-old BALB/c nude mice on the back flank, respectively. Then, when tumors were grown to a volume of approximately 150 mm^3, the mice were divided into three groups: the control group (Control), 2 Gy dose of radiation alone, and a combination administration of 2 Gy dose of radiation+10 mg/kg of ADP-ribose (subcutaneous administration, 3 times a week). The irradiation was performed with an X-Rad 320 irradiator (Precision X-ray, North Branford, CT, USA), wherein the mice were placed by maintaining an appropriate distance from the radiation source for irradiation with a predetermined radiation dose. A lead shield was used to protect the body parts or organs from exposure to radiation, other than the cancerous part of the mouse. The irradiation was performed with a total of 2 Gy of radiation fractionated into two doses of 1 Gy each (for 2 days) at a dose rate of 300 kVp and 150 cGy/min using an X-ray beam filter composed of 12.5 mA and 2.0 mm Al. The tumor size was measured every 6 days using a digital caliper, and the results of changes in tumor volume were compared by the group.\nKidney cancer (Caki-1) cells (1×10^7) were inoculated into 5-week-old BALB/c nude mice on the back flank, and the mice were divided into three groups: the control group (Control), 2 Gy dose of radiation alone, and combination administration of 2 Gy dose radiation+20 mg/kg of ADP-ribose. When the tumors were grown to a volume of approximately 150 mm^3, 2 Gy dose of radiation was irradiated twice at 1 Gy each, and 20 mg/kg of ADP-ribose was injected subcutaneously 3 times a week. The tumor size was measured using a digital caliper, and the results of changes in tumor volume were compared by the group."}, "[4]": {"conditions": "ADP-ribose 10 mg/kg s.c. in combination with osimertinib 1 mg/kg, P<0.001"}, "[5]": {"conditions": "ADP-ribose 20 mg/kg s.c. + 2 Gy radiation, P<0.001"}}}
{"smiles": "Nc1ncnc2c1ncn2[C@@H]1O[C@H](COP(=O)(O)OP(=O)(O)OC[C@H]2O[C@@H](O)C(O)C2O)C(O)C1O", "note": "(stereo partly shown) [ADP-ribose, adenosine diphosphate ribose]", "values": [{"measurement": "maximum lethal dose (concentration at which almost all cells were killed)", "setting": "Caki-1 cells; Caki-1, 24 hours, MTT", "value": 32, "unit": "µM"}, {"measurement": "cancer cell growth under a microscope", "setting": "Caki-1 cells; Caki-1, ADP-ribose treated vs control, FIG. 8A", "value": "inhibited from growing and killed"}, {"measurement": "IC50", "setting": "Caki-1 cells; Homo sapiens, CAKI-1, 24 h, read-out: half-lethal dose (concentration at which about half of the cells were killed)", "value": "~16", "unit": "µM"}, {"measurement": "final tumor volume", "setting": "[1]; 2 mg/kg intravenous", "value": 706.7, "unit": "mm^3"}, {"measurement": "final tumor volume", "setting": "[1]; 10 mg/kg intravenous", "value": 331.7, "unit": "mm^3"}, {"measurement": "final tumor volume", "setting": "[1]; 20 mg/kg intravenous", "value": 227.2, "unit": "mm^3"}, {"measurement": "reduction of tumor volume compared to the control group", "setting": "[2]; [4]", "value": "about 81%"}, {"measurement": "reduction of tumor volume compared to the group treated with osimertinib alone", "setting": "[2]; [4]", "value": "about 77%"}, {"measurement": "final tumor volume", "setting": "[2]; ADP-ribose 10 mg/kg subcutaneous 3 times a week in combination with osimertinib 1 mg/kg, control about 2265.5", "value": "about 424.7 mm^3"}, {"measurement": "amount of ADP-ribose in the cells over time compared to the control group", "setting": "MDA-MB-231 cells", "value": "maintained a significant (P<0.001) increase"}, {"measurement": "reduction of tumor volume compared to the control group", "setting": "[3]; [5]", "value": "about 70%"}, {"measurement": "reduction of tumor volume compared to the group treated with 2 Gy dose of radiation alone", "setting": "[3]; [5]", "value": "about 68%"}, {"measurement": "final tumor volume", "setting": "[3]; ADP-ribose 20 mg/kg subcutaneous 3 times a week + 2 Gy radiation, control about 2620.5, 2 Gy alone about 2454.5", "value": "about 786.4 mm^3"}]}
